According to patent US10583112B2, “Benzo[b]furans as bromodomain inhibitors” (GlaxoSmithKline Intellectual Property (No. 2) Limited, priority 2016, dated 2020):

What was measured:
BRD4 BD1 = biological target: T1, BRD4 BD1 (Homo sapiens, UniProt O60885, Y390A); assay: BRD4 BD1 TR-FRET competition assay; type: binding; details: mean, n given; read-out: pIC50 in the BRD4 BD1 TR-FRET assay (converted)
T1 construct: BRD4 (1-477) (Y97A) and (Y390A); made in house; host or cells: E. coli (pET15b vector)
Experimental: Bromodomain binding was assessed utilising a time resolved fluorescent resonance energy transfer (TR-FRET) competition assay. To enable this approach a known, high affinity, pan-BET interacting small molecule was labelled with Alexa Fluor® 647, which is a far-red-fluorescent dye (Reference Compound X). Reference Compound X acts as a reporter of bromodomain binding and is the acceptor fluorophore component of the TR-FRET pair. Europium chelate, conjugated to an anti-6*His antibody, was utilised as the donor fluorophore in the TR-FRET pair. […]
The competition of the compounds of formula (I) with Reference Compound X for binding to the BET family (BRD2, BRD3, BRD4 and BRDT) was assessed using protein truncates spanning both bromodomain 1 (BD1) and bromodomain 2 (BD2). […] Utilising a Fluorescence Polarisation approach, binding affinities for each of the single and double mutants for Reference Compound X were determined. […]
All assay components were dissolved in an assay buffer composing of 50 mM HEPES pH7.4, 50 mM NaCl, 5% Glycerol, 1 mM DTT and 1 mM CHAPS. […] TR-FRET was detected using a Perkin Elmer Multimode plate reader, by exciting the donor fluorophore at λ337 nm and subsequently, after a delay of 50 μsecs, measuring emission of the donor and acceptor fluorophores at λ615 nm and λ665 nm, respectively. […]

BRD4 BD2 = biological target: T2, BRD4 BD2 (Homo sapiens, UniProt O60885, Y97A); assay: BRD4 BD2 TR-FRET competition assay; type: binding; details: for Selectivity for BRD4 BD2 over BRD4 BD1 (BRD4 BD2 pIC50 - BRD4 BD1 pIC50): in at least one of the TR-FRET assays; for fold selective for BRD4 BD2 over BRD4 BD1: inferred from the log unit selectivity; for IC50: mean where stated, n given, read-out: pIC50 in the BRD4 BD2 TR-FRET assay (converted)
T2 construct: BRD4 (1-477) (Y97A) and (Y390A); made in house; host or cells: E. coli (pET15b vector)
Experimental: Bromodomain binding was assessed utilising a time resolved fluorescent resonance energy transfer (TR-FRET) competition assay. […] Europium chelate, conjugated to an anti-6*His antibody, was utilised as the donor fluorophore in the TR-FRET pair.
In order to generate a TR-FRET signal, donor fluorophore is excited by a laser at λ337 nm, which subsequently leads to emission at λ618 nm.
In order to monitor differential binding to either BD1 or BD2, single residue mutations of key tyrosines to alanine were made in the acetyl lysine binding pockets. To validate this approach, a double residue mutant tandem domain protein was produced for each of the BET family members.
Final purification was completed by Superdex 200 prep grade size exclusion column. Purified protein was stored at −80° C. in 20 mM HEPES pH 7.5 and 100 mM NaCl.
All assay components were dissolved in an assay buffer composing of 50 mM HEPES pH7.4, 50 mM NaCl, 5% Glycerol, 1 mM DTT and 1 mM CHAPS. […] An equal volume of 3 nM of anti-6*His Europium chelate was added to all wells, followed by a further 30 minute incubation at room temperature. TR-FRET was detected using a Perkin Elmer Multimode plate reader, by exciting the donor fluorophore at λ337 nm and subsequently, after a delay of 50 μsecs, measuring emission of the donor and acceptor fluorophores at λ615 nm and λ665 nm, respectively.
cA four parameter curve fit of the following form was then applied: y=a+((b−a)/(1+(10^x/10^c)^d) • Where ‘a’ is the minimum, ‘b’ is the Hill slope, ‘c’ is the pIC50 and ‘d’ is the maximum.

[1] = test system: double residue mutant tandem domain protein of each of the BET family members; assay: Fluorescence Polarisation binding affinity, double mutants; set-up: species or system Human
Experimental: (§1) The competition of the compounds of formula (I) with Reference Compound X for binding to the BET family (BRD2, BRD3, BRD4 and BRDT) was assessed using protein truncates spanning both bromodomain 1 (BD1) and bromodomain 2 (BD2). In order to monitor differential binding to either BD1 or BD2, single residue mutations of key tyrosines to alanine were made in the acetyl lysine binding pockets. To validate this approach, a double residue mutant tandem domain protein was produced for each of the BET family members. Utilising a Fluorescence Polarisation approach, binding affinities for each of the single and double mutants for Reference Compound X were determined. […] The affinities of the single mutated bromdomain tandem proteins for Reference Compound X were equi-potent with the corresponding non-mutated BET protein. […] In the TR-FRET competition assay, Reference Compound X is used at a concentration that is equivalent to the Kd for the non-mutated bromodomain, which ensures that no binding at the mutated bromodomain is detected. […]

[2] = test system: single mutated bromodomain tandem proteins (BET family); assay: Fluorescence Polarisation binding affinity, single mutants; set-up: species or system Human
Experimental: as §1

With `CNC(=O)c1cc(C(=O)NCCCC2CNCCO2)cc2c1O[C@H](C)[C@H]2c1ccccc1` (stereo partly drawn) [Example 54, (2R,3S)—N^7,2-Dimethyl-N^5-(3-(morpholin-2-yl)propyl)-3-phenyl-2,3-dihydrobenzofuran-5,7-dicarboxamide] the IC50 (BRD4 BD1) was 25.1 µM, the “Selectivity for BRD4 BD2 over BRD4 BD1 (BRD4 BD2 pIC50 - BRD4 BD1 pIC50)” value (BRD4 BD2) was 3.2 log unit and the “fold selective for BRD4 BD2 over BRD4 BD1” value (BRD4 BD2) was “at least 1000 fold”. It also gave an IC50 (BRD4 BD2) of 0.0158 µM.

With `CNC(=O)c1cc(C(=O)N[C@H]2[C@@H]3CN(C(=O)OC(C)(C)C)C[C@@H]32)cc2c1O[C@H](C)[C@H]2c1ccccc1` [Example 38, (1R,5S,6S)-tert-Butyl 6-((2R,3S)-2-methyl-7-(methylcarbamoyl)-3-phenyl-2,3-dihydrobenzofuran-5-carboxamido)-3-azabicyclo[3.1.0]hexane-3-carboxylate] the IC50 (BRD4 BD1) was 20 µM, the “Selectivity for BRD4 BD2 over BRD4 BD1 (BRD4 BD2 pIC50 - BRD4 BD1 pIC50)” value (BRD4 BD2) was 3.3 log unit and the “fold selective for BRD4 BD2 over BRD4 BD1” value (BRD4 BD2) was “at least 100 fold”. It also gave an IC50 (BRD4 BD2) of 0.01 µM.

`COc1ccc2c(c1)C(c1ccc(Cl)cc1)=N[C@@H](CC(=O)NCCCCCNC(=O)CCCCCC1(C)/C(=C/C=C/C=C/C3=[N+](CCCCS(=O)(=O)O)c4ccc(S(=O)(=O)O)cc4C3(C)C)N(CCCCS(=O)(=O)[O-])c3ccc(S(=O)(=O)O)cc31)c1nnc(C)n1-2` (stereo partly drawn) [Reference Compound X] was tested, and the “reduction in Kd (affinity) versus non mutated, wild type tandem BET proteins” value [1] was > 1000 fold and the “affinity versus corresponding non-mutated BET protein” value [2] was “equi-potent”.

`CNC(=O)c1cc(C(=O)NCCc2cnn(C)c2)cc2c1O[C@@H](C)[C@@H]2c1ccccc1` [Example 188, (2S,3R)-N^7,2-dimethyl-N^5-(2-(1-methyl-1H-pyrazol-4-yl)ethyl)-3-phenyl-2,3-dihydrobenzofuran-5,7-dicarboxamide] showed an IC50 (BRD4 BD2) of 1 to 100 µM.

`CNC(=O)c1cc(C(=O)NC2CC2)cc2c1O[C@@H](C)[C@@H]2c1ccccc1` [Example 102, (2S,3R)-N^5-cyclopropyl-N^7,2-dimethyl-3-phenyl-2,3-dihydrobenzofuran-5,7-dicarboxamide] showed an IC50 (BRD4 BD2) of 1 to 100 µM.

In the case of `CNC(=O)c1cc(C(=O)NC)c2c(c1)[C@@H](c1ccccc1)[C@H](C)O2` [Example 100, (2S,3R)-N^5,N^7,2-trimethyl-3-phenyl-2,3-dihydrobenzofuran-5,7-dicarboxamide], the IC50 (BRD4 BD2) is reported as 1 to 100 µM.

With `CNC(=O)c1cc(C(=O)NC2CC2)cc2c1O[C@@H](CO)[C@@H]2c1ccccc1` [Example 104, (2R,3R)-N^5-cyclopropyl-2-(hydroxymethyl)-N^7-methyl-3-phenyl-2,3-dihydrobenzofuran-5,7-dicarboxamide] the IC50 (BRD4 BD2) was 1 to 100 µM.

`CNC(=O)c1cc(C(=O)Nc2cncnc2)cc2c1O[C@@H](CF)[C@@H]2c1ccccc1` [Example 200, (2R,3R)-2-(Fluoromethyl)-N^7-methyl-3-phenyl-N^5-(pyrimidin-5-yl)-2,3-dihydrobenzofuran-5,7-dicarboxamide] showed an IC50 (BRD4 BD2) of 1 to 100 µM.
